From US4554367A, “Phosphonium organohalogenostannates-IV” (priority 1982, dated 1985)

Columns and labels:
Venturia inaequalis = test: Residual protective action against Venturia inaequalis on apple shoots; assay type: in vivo; details: 0.02% of active substance, 15 days after infection
Protocol: Residual protective action against Venturia inaequalis on apple shoots
Apple cuttings with fresh shoots 10-20 cm long were sprayed with a spray liquor (0.02% of active substance) prepared from a wettable powder of the active substance. After 24 hours, the treated plants were infected with a conidia suspension of the fungus. The plants were then incubated at 90-100% relative atmospheric humidity for 5 days and were placed in a greenhouse at 20°-24° C. for 10 further days. The scab attack was evaluated 15 days after the infection. Compounds nos. 18, 5 and 9 and others inhibited the disease attack to less than 10%.

Proteus vulgaris = test: MIC against bacteria, strain A; assay type: cell-based; details: 24 h, 30° C., tested at 100 or 300 mg/liter
Protocol: (§1) Determination of the minimum inhibitory concentration (MIC) against bacteria
(§2) ONCs (cultures incubated overnight) of the bacteria strains A-F grown in Caso-Peptone broth (Merck) are each diluted […] in saline. An amount of the suspension is introduced into Caso-Peptone broth such that the bacteria are again diluted 1:1,000. The cultures are treated with 100 or 300 mg/liter of the phosphonium stannates shown in Table B. After incubation at 30° C. in a shaking water bath for 24 hours, the cultures are evaluated on the basis of cloudiness. The MIC is the concentration at which the broth is not clouded by bacterial growth.

Pseudomonas aeruginosa = test: MIC against bacteria, strain B; assay type: cell-based; details: 24 h, 30° C., tested at 100 or 300 mg/liter
Protocol: as §1, §2

Enterobacter aerogenes = test: MIC against bacteria, strain C; assay type: cell-based; details: 24 h, 30° C., tested at 100 or 300 mg/liter
Protocol: as §1, §2

Serratia marcenscens = test: MIC against bacteria, strain D; assay type: cell-based; details: 24 h, 30° C., tested at 100 or 300 mg/liter
Protocol: as §1, §2

[1] = test system: Alkaligenes denitrificans; test: MIC against bacteria, strain E; assay type: cell-based; details: 24 h, 30° C., tested at 100 or 300 mg/liter
Protocol: as §1, §2

Bacillus subtilis = test: MIC against bacteria, strain F; assay type: cell-based; details: 24 h, 30° C., tested at 100 or 300 mg/liter
Protocol: as §1, §2

Aspergillus niger = test: MIC against fungi, strain G; assay type: cell-based; details: malt extract agar
Protocol: (§3) Determination of the minimum inhibitory concentration (MIC) against fungi
(§4) The investigation is carried out in malt extract agar (Merck) by the known agar incorporation test using the fungi

Aspergillus phoenicia = test: MIC against fungi, strain H; assay type: cell-based; details: malt extract agar
Protocol: as §3, §4
(§5) For inhibition, the various compounds are in each case added in amounts such that concentrations of […] results in the agar. The concentrations (mg/liter) required for inhibition of the growth of the fungi (starting from traces of fungi dripped on) are illustrated in Table D.

Penicillium funiculosum = test: MIC against fungi, strain I; assay type: cell-based; details: malt extract agar
Protocol: as §3, §4
I Penicillium funiculosum
as §5

Alternaria alternata = test: MIC against fungi, strain J; assay type: cell-based; details: malt extract agar
Protocol: as §3, §4, §5

[2] = test system: Cladosporium cladosporioides; test: MIC against fungi, strain K; assay type: cell-based; details: malt extract agar
Protocol: as §3, §4
K Cladosporium cladosporioides
as §5

Candida albicans = test: MIC against fungi, strain L; assay type: cell-based; details: malt extract agar
Protocol: as §3, §4, §5

Endomyces geotrichum = test: MIC against fungi, strain M; assay type: cell-based; details: malt extract agar
Protocol: as §3, §4, §5

Aureobasidium pullulans = test: MIC against fungi, strain N; assay type: cell-based; details: malt extract agar
Protocol: as §3, §4
N Aureobasidium pullulans
as §5

Chaetomium globosum = test: MIC against fungi, strain O; assay type: cell-based; details: malt extract agar
Protocol: as §3, §4, §5

Chlorella vulgaris = test: Action against Chlorella vulgaris; assay type: cell-based; parameters: key to Growth in the medium: 1: no growth in the medium, 3 ppm have a growthinhibiting action; key to Growth on the agar: 2: no growth on the agar, 3 ppm have destroyed the algae within 6 hours; details: 3 mg/liter
Protocol: Determination of the action against algae
A Chlorella vulgaris culture grown for 14 days in algae nutrient medium is diluted 1:200 in algae nutrient medium. Each of the compounds listed in Table E is then added such that a concentration of 3 mg/liter results. After incubation for 6 hours, 10 μl are in each case withdrawn and dripped onto algae agar in order to determine the destructive action.

[3] = test system: Enteromorpha intestinalis; test: Action against Enteromorpha intestinalis; assay type: cell-based
Protocol: (b) Enteromorpha intestinalis
The action against the green alga Enteromorpha most important in sea water fouling is investigated in sterile-filtered sea water containing Erd-Schreiber solution. The solution is composed of a nutrient extract, phosphate and nitrate. Incubation of the Enteromorpha intestinalis takes place in a light thermostat at 18° C. under a 14 hours light/10 hours dark cycle.
The algae grown in this manner are exposed for a short time (4 hours), in sea water, to the products to be investigated. The minimum killing concentration (MKC) is determined by removing the algae from the sea water containing a certain amount of algicide at the end of the period of action, washing them and investigating them for growth or destruction after renewed incubation in fresh sea water for 6 to 8 weeks.
The minimum killing concentration (MKC) is the amount of substance required to harm the alga within a certain period of time to the extent that it can no longer recover in fresh sea water and dies off.
To determine the inhibitory concentration (MIC), the alga is kept in sea water containing biocide throughout the entire duration of the experiment (concentration tested: 0.1 and 0.5 mg/liter).

Artemia salina = test: Action against Artemia salina; assay type: in vivo; parameters: key: 0: nauplii not affected; 1: slight change; 1-2: nauplii affected; 2: nauplii severely affected; 2-3: almost all nauplii dead; 3: all nauplii dead
From the text: Determination of the action against Artemia salina
The commercially available eggs are caused to hatch under powerful aeration. […]

## CCCCCCCCCCCCCC[P+](CCCC)(CCCC)CCCC.[Cl][Sn-]([Cl])([CH]1CCCCC1)([CH]1CCCCC1)[CH]1CCCCC1 [Example 18, tri-n-bytyl-n-tetradecyl-phosphonium tricyclohexyldichlorostannate]
Venturia inaequalis
  disease (scab) attack (inhibited to less than): less than 10%

## CCCCCCCCCCCCCC[P+](CCCC)(CCCC)CCCC.[CH3][Sn-]([CH3])([Cl])([Cl])[Cl] [Example 20]
Proteus vulgaris
  MIC: 100 µg/mL
Pseudomonas aeruginosa
  MIC: 100 µg/mL
Enterobacter aerogenes
  MIC: 100 µg/mL
Serratia marcenscens
  MIC: 100 µg/mL
[1]
  MIC: 100 µg/mL
Bacillus subtilis
  MIC: 100 µg/mL
Aspergillus niger
  MIC against fungi: 50 µg/mL
Aspergillus phoenicia
  MIC against fungi: 50 µg/mL
Penicillium funiculosum
  MIC against fungi: 10 µg/mL
Alternaria alternata
  MIC against fungi: 50 µg/mL
[2]
  MIC against fungi: 10 µg/mL
Candida albicans
  MIC against fungi: 10 µg/mL
Endomyces geotrichum
  MIC against fungi: 10 µg/mL
Aureobasidium pullulans
  MIC against fungi: 10 µg/mL
Chaetomium globosum
  MIC against fungi: 10 µg/mL
Chlorella vulgaris; 6 hours exposure (algae-destruction action)
  Growth on the agar: 2
Chlorella vulgaris; 14 days (inhibition of growth)
  Growth in the medium: 1
[3]; 5 mg/liter, 4 hours exposure in sea water, re-incubation 6 to 8 weeks
  Destruction 5 mg/liter: yes
[3]; kept in sea water containing biocide throughout, tested 0.1 and 0.5 mg/liter
  MIC: > 0.5 µg/mL
Artemia salina; 0.25 mg/liter, 6 hours
  Action against Artemia salina: 0
Artemia salina; 0.25 mg/liter, 24 hours
  Action against Artemia salina: 1-2
Artemia salina; 0.25 mg/liter, 48 hours
  Action against Artemia salina: 2-3
Artemia salina; 0.5 mg/liter, 6 hours
  Action against Artemia salina: 1
Artemia salina; 0.5 mg/liter, 24 hours
  Action against Artemia salina: 2
Artemia salina; 0.5 mg/liter, 48 hours
  Action against Artemia salina: 3
Artemia salina; 1 mg/liter, 6 hours
  Action against Artemia salina: 2
Artemia salina; 1 mg/liter, 24 hours
  Action against Artemia salina: 2-3
Artemia salina; 1 mg/liter, 48 hours
  Action against Artemia salina: 3
Artemia salina; 2.5 mg/liter, 6 hours
  Action against Artemia salina: 1-2
Artemia salina; 2.5 mg/liter, 24 hours
  Action against Artemia salina: 3
Artemia salina; 2.5 mg/liter, 48 hours
  Action against Artemia salina: 3
